In experiment [1] the target is h-EP2 (Homo sapiens, UniProt P43116). Put plainly: Prostaglandin EP2 receptor binding assay (3H-PGE2 SPA). Particulars: EP2 receptor membranes, 20 nM 3H-PGE2, pH 6.0. The method, then:
Compounds of the invention were tested in an EP2 receptor binding assay of the following protocol. As referred to herein, the term an “EP2 receptor binding assay” designates the following protocol.

Experiment [2] concerns the target h-EP4 (Homo sapiens, UniProt P35408). Put plainly: EP4 receptor binding assay (3H-PGE2 SPA). The settings on record: EP4 receptor membranes, 20 nM 3H-PGE2, pH 6.0. As to the method:
Compounds of the invention were tested in an EP4 receptor binding assay of the following protocol.

Experiment [3] has as its system methacholine-induced bronchoconstriction. Put plainly: In vivo inhibition of guinea pig broncho-constriction (methacholine-induced). Particulars: Cavia porcellus, IT (intra-tracheal) route, read-out: calculated effective dose (ED50), bronchoconstriction. An excerpt: The activity of compounds of the invention in dilation of bronchiolar muscles, may be tested in different models. Guinea pig pulmonary-cholinergic in vivo model is generally used to test the materials for the treatments of asthma in human (Fleisch et al., 1985) Compounds of the invention can be tested in this methacholine-induced bronchomuscle constriction model as described below.
Groups of 3 Duncan Hartley derived male or female guinea pigs weighing 250±50 g are anesthetized with pentobarbital sodium (50 mg/kg i.p., plus an additional 15 mg/kg i.p. if required) and succinylcholine chloride (2 mg/animal i.p.) is subsequently administered to prevent spontaneous respiration. Body temperature is maintained at 37° to 38° C.
The trachea is cannulated and the guinea pig is ventilated with a Harvard rodent respirator in a closed system. Tracheal pressure is recorded through a side-arm of the cannula connected to a P23ID Statham transducer. […] Mean arterial pressure (BP) is monitored from a cannulated carotid artery, and heart rate (HR) is obtained from chest electrodes arranged for lead II. […]
Compounds of the invention are also tested via intra-tracheal (IT) route of administration. […] Tracheal pressure (ITP), blood pressure and heart rate are measured immediately as indicated in the material and methods sections. […]

For experiment [4], the target named is T1, hEP2 receptors (Homo sapiens, UniProt P43116).
T1 construct: expressed in transfected cells; host or cells: HEK293-EBNA
T1 sequence (P43116 whole entry): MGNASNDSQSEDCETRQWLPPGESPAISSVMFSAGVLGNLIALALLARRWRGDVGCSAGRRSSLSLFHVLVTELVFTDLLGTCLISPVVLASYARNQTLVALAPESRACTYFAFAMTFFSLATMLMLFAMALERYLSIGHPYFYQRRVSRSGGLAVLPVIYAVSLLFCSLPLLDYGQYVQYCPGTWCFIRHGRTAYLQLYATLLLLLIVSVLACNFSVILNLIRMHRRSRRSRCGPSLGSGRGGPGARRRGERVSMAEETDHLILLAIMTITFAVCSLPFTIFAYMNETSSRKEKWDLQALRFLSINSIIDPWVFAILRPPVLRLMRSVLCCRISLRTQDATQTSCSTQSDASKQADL
Put plainly: EP2 cAMP assay, HEK293-EBNA cells transfected with pCEP4-hEP2 receptors. The class given is cell-based. Particulars: total cAMP, 1 hour. The method, then:
Compounds of the invention were tested in a total cAMP assay as follows. […] After overnight incubation, the medium was removed from each well and replaced with 45 μl of assay medium consisted of phenol red free D-MEM/F-12, 0.1% BSA (GibcoBRL) and 0.1 mM 3-isobutyl-1-methyl-xanthine (Sigma). […] Total cAMP (intra- and extra-cellular) was measured by using a cAMP-screen ELISA System (Tropix, #CS1000).
(Cyclic AMP is a second messenger, typically raised through Gs and lowered through Gi signalling.)

The test system of experiment [5] is LPS-induced TNFα release. Put plainly: In vivo inhibition of LPS-induced TNFα release in mice. The settings on record: LPS 0.3 mg/kg i.p. As to the method: The anti-inflammatory activity of compounds of the invention may be assessed after a LPS challenge using the following protocol:
Eight weeks old C3H/H mice (IFFA-CREDO, L'arbresle, France) receive an oral treatment with compounds of the invention 6 different doses (0.001, 0.01, 0.1, 1 or 3 and 10 mg/kg in 0.5% CMC/0.25% tween-20). Six mice are used by group. Fifteen minutes later, endotoxins (O111:B4 Sigma, 0.3 mg/kg) are intraperitoneally injected. Heparinized whole blood is collected by decapitation. TNFα level is determined in plasma by ELISA (R & D Systems, Abdingdon, UK). Control animals receive 0.5% CMC/0.25% tween-20 (10 ml/kg) as vehicle. Data obtained from experiments are expressed as the mean±SEM and analysed using one-way analysis of variance (ANOVA) followed by Dunnett's t-test.

Experiment [6] has as its target T2, hEP4 receptors (Homo sapiens, UniProt P35408).
T2 construct: expressed in transfected cells; host or cells: HEK293-EBNA
Put plainly: EP4 cAMP assay, HEK293-EBNA cells transfected with pCEP4-hEP4 receptors. The experiment is classed as cell-based. Particulars: total cAMP, 1 hour. The method, then: Compounds of the invention were tested in a total cAMP assay as follows. HEK293-EBNA cells transfected with pCEP4-hEP4 receptors were seeded in 96 well opaque plate (Costar #3917) at 4×10^4 cells per well in 100 μl of culture medium (D-MEM/F12 supplemented with 10% FBS, […] L-glutamine, and 250 μg/ml of hygromycin; all from GibcoBRL) and incubated at 37° C. After overnight incubation, the medium was removed from each well and replaced with 45 μl of assay medium consisted of phenol red free D-MEM/F-12, 0.1% BSA (GibcoBRL) and 0.1 mM 3-isobutyl-1-methyl-xanthine (Sigma). After 15 minutes of incubation at 37° C., 16-16-dimethyl PGE-2 or compounds at desired concentrations in 20 μl of assay medium were added to cells and further incubated at 37° C. for 1 hour. Total cAMP (intra- and extra-cellular) was measured by using a cAMP-screen ELISA System (Tropix, #CS1000).

SMILES strings stand for the structures.

h-EP4, sequence (P35408 whole entry): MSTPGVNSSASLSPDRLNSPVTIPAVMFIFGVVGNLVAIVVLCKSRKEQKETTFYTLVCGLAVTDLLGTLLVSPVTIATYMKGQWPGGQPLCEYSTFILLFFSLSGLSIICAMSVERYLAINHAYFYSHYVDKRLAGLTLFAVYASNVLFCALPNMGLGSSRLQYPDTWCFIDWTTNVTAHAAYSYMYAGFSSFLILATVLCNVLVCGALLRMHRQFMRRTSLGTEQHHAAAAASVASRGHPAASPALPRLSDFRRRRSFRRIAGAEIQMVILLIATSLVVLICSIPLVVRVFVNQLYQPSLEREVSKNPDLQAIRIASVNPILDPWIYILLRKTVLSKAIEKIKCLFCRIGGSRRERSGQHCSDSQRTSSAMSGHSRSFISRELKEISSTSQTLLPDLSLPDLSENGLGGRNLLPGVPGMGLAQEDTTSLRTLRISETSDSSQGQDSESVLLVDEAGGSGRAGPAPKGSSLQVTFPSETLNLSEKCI
T2 sequence (P35408 whole entry): as above
h-EP2, sequence (P43116 whole entry): as the sequence (P43116 whole entry) above

Usually Ki stands for a measure of affinity in units of concentration, obtained from inhibition or displacement. The low end stands for a stronger hold on the target, the high end for a looser hold on the target. The ED50 is the dose at which the effect has come halfway, by size or by number of responders. The term EC50 denotes the concentration giving half of the maximal effect. A high value points to lower potency in that assay. As for `CCCC/C=C(C)/C=C/[C@H]1CCC(=O)N1CCc1ccc(C(=O)O)cc1` [Example 22, 4-(2-{(2R)-2-[(1E,3E)-3-methylocta-1,3-dienyl]-5-oxopyrrolidin-1-yl}ethyl)benzoic acid], the Ki came out at 34 nM in experiment [1] and 145 nM in experiment [2]. Besides, the ED50 in experiment [3] is 0.4 mg/kg. Besides, the EC50 in experiment [4] was 23 nM; in experiment [6] it was 21 nM. Further, the “% of Inhibition of TNF Release Mean ± SEM” value in experiment [5] (oral dose 0.001 mg/kg) amounted to 46 ± 2%; in experiment [5] (oral dose 0.01 mg/kg), 49 ± 4%; in experiment [5] (oral dose 0.1 mg/kg), 59 ± 2%; in experiment [5] (oral dose 1 mg/kg) it was 70 ± 4%; in experiment [5] (oral dose 10 mg/kg), 87 ± 2%.

These data come from patent US7276531B2, “G-lactam derivatives as prostaglandin agonists” (Applied Research Systems ARS Holding N.V., priority 2003, dated 2007).
